Here are results for 18 compounds from patent US20160257697A1, “THIOPHENE-SUBSTITUTED TETRACYCLIC COMPOUNDS AND METHODS OFUSE THEREOF FOR THE TREATMENT OF VIRAL DISEASES” (priority 2013, published 2016).

Assay in all cases: microbe, parasite or virus in culture
Holding throughout (type): cell-based, Hepatitis C virus (HCV)

One assay relates to HCV replicon 1AY93H. Conditions: Replicon Assay A. In outline: (§1)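 Cells seeded 2000/well + compound; 0.5% DMSO, 5% FBS; harvest day 3, lyse. Multiplex TaqMan RT-PCR for replicon (Neo probe) and cyclophilin RNA; amounts from Ct vs log(ng) linear regression of replicon total RNA standards.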
Background: Replicon systems follow genome replication, usually without infectious particles.

Another assay concerns HCV replicon 1A. As to conditions: replicon 1A, Replicon Assay A. In outline: as §1
The next assay relates to HCV replicon 2B. As to conditions: Replicon Assay A. In outline:
as §1

[1] abbreviates: read-out: 1A Y93H IC50, replicon 1AY93H.
[2] abbreviates: Hepatitis C virus, read-out: 1A Y93H IC50 (nM), replicon 1AY93H.
Where [3] appears, read: Hepatitis C virus, read-out: 2B IC50 (nM), replicon 2B.

Each structure is given as a SMILES string. Like-named read-outs stand apart in the source and are kept apart here.

A word on the IC50: it is the point on the concentration scale where inhibition reaches its midpoint. As for `[2H]C(C)(C)C(NC(=O)OC)C(=O)N1CCC[C@H]1c1ncc(-c2cc(F)c3c(c2)OC(c2ccc(C4CC4)s2)n2c-3cc3cc(-c4cnc([C@@H]5CCCN5C(=O)[C@@H](NC(=O)OC)C(C)C)[nH]4)ccc32)[nH]1` (single isomer, unassigned) [Compound 31], the IC50 with HCV replicon 1AY93H (setting [1]) stood at 0.02 nM; with HCV replicon 1A, 0.002 nM; with HCV replicon 2B (read-out: 2B IC50, replicon 2B), 0.083 nM.
Turning to `[2H]C(C)(C)C(NC(=O)OC)C(=O)N1CCC[C@H]1c1ncc(-c2cc(F)c3c(c2)OC(c2ccc(C4CC4)s2)n2c-3cc3cc(-c4cnc([C@@H]5CCCN5C(=O)[C@@H](NC(=O)OC)C(C)C)[nH]4)ccc32)[nH]1` (single isomer, unassigned) [Compound 32], the IC50 was 1.42 nM in the assay with HCV replicon 1AY93H (setting [1]); 0.0013 nM in the assay with HCV replicon 1A; 6.02 nM in the assay with HCV replicon 2B (read-out: 2B IC50, replicon 2B).
As for `CCCc1ccc(C2Oc3cc(-c4cnc([C@@H]5CCCN5C(=O)[C@@H](NC(=O)OC)C(C)C)[nH]4)cc(F)c3-c3cc4cc(-c5cnc([C@@H]6CCCN6C(=O)[C@@H](NC(=O)OC)C(C)C)[nH]5)ccc4n32)s1` (single isomer, unassigned) [Compound 33], the IC50 in the assay with HCV replicon 1AY93H (setting [2]) is 0.28 nM; with HCV replicon 1A (Hepatitis C virus) it was 0.0018 nM; in the assay with HCV replicon 2B (setting [3]), 1.89 nM.
As for `COC(=O)N[C@H](C(=O)N1CCC[C@H]1c1ncc(-c2cc(F)c3c(c2)OC(c2ccc(CCF)s2)n2c-3cc3cc(-c4cnc([C@@H]5CCCN5C(=O)[C@@H](NC(=O)OC)C(C)C)[nH]4)ccc32)[nH]1)C(C)C` (single isomer, unassigned) [Compound 43], the IC50 in the assay on HCV replicon 1AY93H (setting [1]) stood at 0.12 nM; in the assay with HCV replicon 1A (Hepatitis C virus), 0.0019 nM; with HCV replicon 2B (read-out: 2B IC50, replicon 2B), 0.54 nM.
Turning to `COC(=O)N[C@H](C(=O)N1CCC[C@H]1c1ncc(-c2cc(F)c3c(c2)OC(c2cc4nccnc4s2)n2c-3cc3cc(-c4cnc([C@@H]5CCCN5C(=O)[C@@H](NC(=O)OC)C(C)C)[nH]4)ccc32)[nH]1)C(C)C` (single isomer, unassigned) [Compound 47], the IC50 in the assay with HCV replicon 1AY93H (setting [1]) worked out at 1.54 nM; in the assay with HCV replicon 1A (Hepatitis C virus) it was 0.0016 nM; with HCV replicon 2B (read-out: 2B IC50, replicon 2B), 0.77 nM.
Regarding `CCc1ccc(C2Oc3cc(-c4cnc([C@@H]5C[C@H]6C[C@H]6N5C(=O)[C@@H](NC(=O)OC)C(C)C)[nH]4)cc(F)c3-c3cc4cc(-c5cnc([C@@H]6C[C@H]7C[C@H]7N6C(=O)[C@@H](NC(=O)OC)C(C)C)[nH]5)ccc4n32)s1` (single isomer, unassigned) [Compound 50], the half-maximal inhibitory concentration (IC50) with HCV replicon 1AY93H (setting [2]) worked out at 0.0284 nM; in the assay on HCV replicon 1A (Hepatitis C virus), 0.0014 nM; in the assay with HCV replicon 2B (setting [3]) it was 1.39 nM.
`COC(=O)N[C@H](C(=O)N1CCC[C@H]1c1ncc(-c2cc(F)c3c(c2)OC(c2cc4c(s2)CCCC4)n2c-3cc3cc(-c4cnc([C@@H]5CCCN5C(=O)[C@@H](NC(=O)OC)C(C)C)[nH]4)ccc32)[nH]1)C(C)C` (single isomer, unassigned) [Compound 55]: the IC50 in the assay on HCV replicon 1AY93H (setting [2]) is 3.26 nM; in the assay with HCV replicon 1A (Hepatitis C virus) it was 0.0019 nM; in the assay on HCV replicon 2B (setting [3]), 2.53 nM.
Turning to `COC(=O)N[C@H](C(=O)N1CCC[C@H]1c1ncc(-c2cc(F)c3c(c2)OC(c2ccc(C(C)(C)C)s2)n2c-3cc3cc(-c4cnc([C@@H]5CCCN5C(=O)[C@@H](NC(=O)OC)C(C)C)[nH]4)ccc32)[nH]1)C(C)C` (single isomer, unassigned) [Compound 62], the IC50 in the assay with HCV replicon 1AY93H (setting [2]) turned out to be 0.69 nM; in the assay with HCV replicon 1A (Hepatitis C virus), 0.0014 nM; in the assay on HCV replicon 2B (setting [3]), 2.88 nM.
With `COC(=O)N[C@H](C(=O)N1CCC[C@H]1c1ncc(-c2cc(F)c3c(c2)OC(c2sc(C4CC4)cc2F)n2c-3cc3cc(-c4cnc([C@@H]5CCCN5C(=O)[C@@H](NC(=O)OC)C(C)C)[nH]4)ccc32)[nH]1)C(C)C` (single isomer, unassigned) [Compound 65], the IC50 in the assay with HCV replicon 1AY93H (setting [1]) stood at 3 nM; in the assay on HCV replicon 1A (Hepatitis C virus), 0.0016 nM; in the assay with HCV replicon 2B (read-out: 2B IC50, replicon 2B), 3.6 nM.
For the compound `COC(=O)NC(C(=O)N1CCC[C@H]1c1ncc(-c2cc(F)c3c(c2)OC(c2ccc(C4CC4)s2)n2c-3cc3cc(-c4cnc([C@@H]5CCCN5C(=O)[C@@H](NC(=O)OC)C(C)C)[nH]4)ccc32)[nH]1)C(C)(C)F` (single isomer, unassigned) [Compound 70], the IC50 stood at 10.5 nM in the assay on HCV replicon 1AY93H (setting [1]); 0.0188 nM with HCV replicon 1A (Hepatitis C virus); 24.2 nM with HCV replicon 2B (read-out: 2B IC50, replicon 2B).
Consider `COC(=O)N[C@H](C(=O)N1CCC[C@H]1c1ncc(-c2cc(F)c3c(c2)OC(c2cc(F)c(C4CC4)s2)n2c-3cc3cc(-c4cnc([C@@H]5CCCN5C(=O)[C@@H](NC(=O)OC)C(C)C)[nH]4)ccc32)[nH]1)C(C)C` (single isomer, unassigned) [Compound 71], for which the IC50 came out at 1.09 nM with HCV replicon 1AY93H (setting [1]); 0.0013 nM with HCV replicon 1A (Hepatitis C virus); 3.85 nM with HCV replicon 2B (read-out: 2B IC50, replicon 2B).
As to `COC(=O)N[C@H](C(=O)N1CCC[C@H]1c1ncc(-c2cc(F)c3c(c2)OC(c2ccc(C4CC4)s2)n2c-3c(F)c3cc(-c4cnc([C@@H]5CCCN5C(=O)[C@@H](NC(=O)OC)C(C)C)[nH]4)ccc32)[nH]1)C(C)C` (single isomer, unassigned) [Compound 73], the IC50 was 2.26 nM with HCV replicon 1AY93H (setting [2]), 0.0016 nM in the assay on HCV replicon 1A (Hepatitis C virus) and 5.14 nM in the assay with HCV replicon 2B (setting [3]).
As for `COC(=O)NC(C(=O)N1CCC[C@H]1c1ncc(-c2ccc3c(c2)cc2n3C(c3ccc(C4CC4)s3)Oc3cc(-c4cnc([C@@H]5CCCN5C(=O)[C@@H](NC(=O)OC)C(C)C)[nH]4)cc(F)c3-2)[nH]1)C(C)(C)F` (single isomer, unassigned) [Compound 76], the IC50 came out at 2.55 nM in the assay on HCV replicon 1AY93H (setting [1]); 0.0159 nM in the assay with HCV replicon 1A; 13.7 nM in the assay with HCV replicon 2B (read-out: 2B IC50, replicon 2B).
Take `CCOC(C)[C@H](NC(=O)OC)C(=O)N1CCC[C@H]1c1ncc(-c2cc(F)c3c(c2)OC(c2cc(C)c(C)s2)n2c-3cc3cc(-c4cnc([C@@H]5CCCN5C(=O)[C@@H](NC(=O)OC)C(C)C)[nH]4)ccc32)[nH]1` (single isomer, unassigned) [Compound 80]: the concentration for half-maximal inhibition (IC50) in the assay with HCV replicon 1AY93H (setting [1]) stood at 4.87 nM; in the assay with HCV replicon 1A, 0.0027 nM; in the assay on HCV replicon 2B (read-out: 2B IC50, replicon 2B) it was 3.16 nM.
For `COCCc1ccc(C2Oc3cc(-c4cnc([C@@H]5CCCN5C(=O)[C@@H](NC(=O)OC)C(C)C)[nH]4)cc(F)c3-c3cc4cc(-c5cnc([C@@H]6CCCN6C(=O)[C@@H](NC(=O)OC)C(C)C)[nH]5)ccc4n32)s1` (single isomer, unassigned) [Compound 81], the IC50 with HCV replicon 1AY93H (setting [2]) was found to be 0.41 nM; with HCV replicon 1A (Hepatitis C virus), 0.0014 nM; with HCV replicon 2B (setting [3]), 1.32 nM.
On to `COC(=O)N[C@H](C(=O)N1CCC[C@H]1c1ncc(-c2cc(F)c3c(c2)OC(c2ccc(C#CC4CC4)s2)n2c-3cc3cc(-c4cnc([C@@H]5CCCN5C(=O)[C@@H](NC(=O)OC)C(C)C)[nH]4)ccc32)[nH]1)C(C)C` (single isomer, unassigned) [Compound 85], for which the IC50 amounted to 0.41 nM in the assay with HCV replicon 1AY93H (setting [1]); 0.0011 nM in the assay on HCV replicon 1A (Hepatitis C virus); 1 nM in the assay on HCV replicon 2B (read-out: 2B IC50, replicon 2B).
Regarding `COC(=O)NC(C(=O)N1CCC[C@H]1c1ncc(-c2cc(F)c3c(c2)OC(c2ccc(C4CC4)s2)n2c-3cc3cc(-c4cnc([C@@H]5C[C@H]6C[C@H]6N5C(=O)[C@@H](NC(=O)OC)C(C)C)[nH]4)ccc32)[nH]1)C(C)(C)F` (single isomer, unassigned) [Compound 98], the IC50 was 0.06 nM with HCV replicon 1AY93H (setting [1]), 0.0011 nM in the assay with HCV replicon 1A and 2.16 nM with HCV replicon 2B (setting [3]).
Take `COC(=O)N[C@H](C(=O)N1CCC[C@H]1c1ncc(-c2cc(F)c3c(c2)OC(c2ccc(C(=O)N(C)C)s2)n2c-3cc3cc(-c4cnc([C@@H]5CCCN5C(=O)[C@@H](NC(=O)OC)C(C)C)[nH]4)ccc32)[nH]1)C(C)C` (single isomer, unassigned) [Compound 103]: the IC50 came out at 5.15 nM in the assay on HCV replicon 1AY93H (setting [1]); 0.0056 nM with HCV replicon 1A (Hepatitis C virus); 1.71 nM with HCV replicon 2B (read-out: 2B IC50, replicon 2B).
